The record followed here is US10507210B2, “Kinase inhibitor prodrug for the treatment of cancer” (Auckland UniServices Limited, priority 2014, dated 2019).

For series [1], the system named is FaDu cells. Kind of series: FaDu anti-proliferative assay, five day continuous aerobic exposure. Format: cell-based, human.
Description: (§1) FaDu cells were grown in αMEM culture medium supplemented with 5% FBS, without routine use of antibiotics (P/S). Cultures were re-established from authenticated frozen stocks in liquid nitrogen at either >24 passages or >90 days in culture (whichever came first). The frozen cell stocks were confirmed to be free of mycoplasma using a PCR-ELIZA kit (Roche Diagnostics GmbH, Mannheim, Germany).
Cells were then treated with ten serial dilutions (3-fold) of each test compound. Cells were left to grow in a humidified incubator (5% CO2, 37° C.) for 5 days. Cells were then fixed with 40% trichloroacetic acid for 1 h at 4° C. Cells were then stained for Sulforhodamine B (SRB) expression. Cell density was determined by using the Biotek ELx808 Absorbance Microplate Reader.
Series [2] concerns FaDu cells. Kind of series: FaDu anti-proliferative assay, oxic vs anoxic 24 h exposure. Format: cell-based, human.
Description: as §1
Monolayers of FaDu cells were harvested by trypsinisation and counted using a hemocytometer. For the oxic assays, cells were seeded (1500 cells/well) in 96 well plates and allowed to settle for 2 hours in a humidified incubator (37 C/5% CO2). Cells were then treated with ten serial dilutions (3-fold) of each test compound for 24 hours. For the anoxic plates, all supplies were pre-equilibrated for at least 72 hours in a H2/palladium-catalyst anaerobic chamber (Bactron, Shellab) to remove any residual oxygen. On the experiment day, cells were centrifuged (1000 rpm, 5 min) to pellet cells. The media was aspirated. The pellet was then taken into the anaerobic chamber and diluted in anoxia-equilibrated media (αMEM culture media, 5% FCS, 0.2 mmol/L 2′-deoxycytidine, 10 mmol/L glucose) to achieve the appropriate cell density. Cells were seeded in identical conditions to the oxic plates. Once seeded, cells were left to settle in a humidified incubator (37 C) within the anaerobic chamber for 2 hours. Anoxic plates were similarly treated with ten serial dilutions (3-fold) of each test compound. Anoxic plates were removed from the anaerobic chamber four hours after drug addition, and placed into a humidified incubator (37 C/5% CO2) for a further 20 hours. After a total of 24 hours of drug exposure, both the oxic and anoxic plates were washed three times in fresh media (αMEM+5% FCS+P/S). Cells were left to grow for a total of 5 days. After which, cells were fixed with 40% trichloroacetic acid for 1 hour at 4° C. Plates were then stained for Sulforhodamine B (SRB) expression. Cell density was determined by using the Biotek ELx808 Absorbance Microplate Reader. […]
Series [3] relates to EGFR signalling. The experiment in a line: Hypoxia preconditioning and TH-4000E sensitivity in FaDu cells. Format: cell-based, human. The following applies: 48 h at 0.1% O2 or 21% O2. The method, then:
FaDu cells were seeded (500 k per well) in 6 well plates under both 0.1% O2 and 21% O2 for 48 hours. After 48 h of hypoxia preconditioning, cells were incubated with various concentrations of TH-4000E for 1 h.
After the designated period of anoxic exposure, cells were washed once in ice-cold PBS. […] After clarification, a BCA assay was performed to determine the protein concentration of the samples. Absorbance readings were performed at 550 nm.
Cellular lysates were resolved by gel electrophoresis and immunoblotted for various members of the EGFR signaling axis. Each loading volume included 10 μg of protein and 25% LDS sample buffer (Life Technologies #NP0007). Samples were loaded onto NuPAGE 4-12% Bis-Tris 15 well gels (Life Technologies #NP0336) and run in MES running buffer (Life Technologies #NP0002) for approximately 2 h's at 120V or until the samples had run off the gel (whichever came first). Samples were then transferred (Transfer buffer: 25 mM Tris, 192 mM glycine, 20% methanol) for 80 mins at 100V onto nitrocellulose membranes. Blots were blocked in 5% BSA or 5% phosphoblocker (CellBiolabs #AKR-104) in TBS-T for at least 1 h. Briefly, blots were incubated with primary antibodies overnight at 4° C. After three 5 min washes in TBS-T, blots were then incubated with the appropriate HRP-conjugated secondary antibody for at least 2 hours at room temperature. […]

The conditions of series [4]: 15 mg/kg TH-4000, tumor.
Description: (§2) Mice were inoculated with PC-9 cells (˜8×10^6 cells per mouse, 42 mice in total). […] The whole tumors were snap frozen (with liquid nitrogen) and bio-pulverised. The tumors were measured every day until collection to correlate the growth kinetics of the tumor to target shutdown.
(§3) For LC-MS/MS, 4 volumes of ice cold acetonitrile (containing 0.5 μM of D6-TH-4000 & TH-4000E) were added to the tumor samples. Samples were spun at 13,000 rpm for 5 min. and 40 μL of the supernatant was taken. To the supernant, 80 μL of 0.01% FA-Water was added and the sample was mixed. 10 μL of this sample was injected for analysis. […] The mass spectrometer was operated in electrospray positive ionization mode using multiple reaction monitoring (MRM). Agilent MassHunter software (v.4.04.00) was used for data acquisition and chromatographic peak integration.
Series [5] in a line: in vivo. Particulars: NIH-III, mouse, plasma, ip, 15 mg/kg; for Cmax: 15 mg/kg TH-4000 ip, ± SE.
Description: as §2, §3
Series [6] deals with pERK. Kind of series: FaDu target modulation Western blot, pERK. The following applies: 1 h drug, EGF 50 ng/mL 15 min. In general terms: Immunoblotting shows a protein as a band on a membrane.
Series [7] concerns pAkt. The experiment in a line: FaDu target modulation Western blot, pAkt. The following applies: 1 h drug, EGF 50 ng/mL 15 min.
Series [8] has as its target pEGFR (Y1068) (Homo sapiens, UniProt P00533). Kind of series: FaDu target modulation Western blot, pEGFR.
Series [9] relates to EGFR pathway signal transduction. The experiment in a line: FaDu target modulation, EGFR pathway relative dose potency.
Series [10] relates to EGFR autophosphorylation (Y1068).
Description: HCC827 and PC9 cell cultures are set up from log-phase passage flasks. Cells are seeded into 6-well plates at a density of 1 million cells per well and left for 48 hours under normoxic or hypoxic (1% O2) conditions. Following 3 hours of drug exposure, cells are washed in ice-cold PBS and lysed on ice for 30 minutes with radioimmunoprecipitation assay (RIPA) buffer containing sodium orthovanadate and sodium fluoride at final concentrations of 1 mM each. Cell debris is pelleted out by centrifugation (13,000 rpm for 2 minutes). Protein concentrations in each sample are determined by a bicinchoninic acid (BCA) assay. Equivalent amounts of protein (10 pig) are denatured (98° C. for 5 minutes) and loaded onto 4-20% Tris-Glycine protein gels for protein separation. Following transfer to a nitrocellulose membrane, each membrane was blocked with 5% bovine serum albumin (in Tris-buffered saline) for 1 hour. […] Excess primary antibody in each membrane was washed off with Tris-buffered saline. Secondary antibody (goat anti-rabbit) was added to each membrane at a dilution of 1:5000 for 2 hours. For protein detection, the membrane was washed in Tris-buffered saline to remove excess secondary antibody and chemiluminescent substrate added (Pierce Supersignal West Pico Chemiluminescent Substrate) for 5 minutes. The membrane was viewed using a Fujifilm LAS 4000 imager.
Series [11] has as its system HCC827 tumor. The experiment in a line: HCC827 xenograft growth delay. Format: in vivo, mice. Particulars: Erlotinib 10 mg/kg Qdx21 p.o.
Description: (§4) HCC827 and PC9 human non-small cell lung cancer (NSCLC) cells were prepared in medium. […] HCC827 tumors were recruited at ˜200 mm^3 and PC9 tumors were recruited at ˜400 mm^3. When the tumors reached the desired volumes, the mice were randomly assigned to groups A-E and treated as detailed in Table 1 below:
(§5) Body weight was recorded every 3 days or prior to dosing and the length and width of subcutaneous tumors were measured with electronic calipers every 3 days and volume calculated according to the formula for a prolate ellipsoid (π/6×length×width×width). All other clinical signs were recorded.
Series [12] relates to PC9 tumor. The experiment in a line: PC9 xenograft growth delay. The series is classed as in vivo, mice.
Description: as §4, §5
Series [13] concerns PC9 xenografts. The series is classed as in vivo. Particulars: erlotinib 10 mg/kg daily oral, period of dosing 21 days.
Description: Tumors were grown to ˜400 mm^3. When tumors were 400 mm^3 mice were randomly assigned to groups A-J and treated as detailed below:
The length and width of subcutaneous tumors were measured with electronic calipers every 3 days and volume calculated according to the formula for a prolate ellipsoid (π/6×length×width×width). Body weight was recorded every 3 days or prior to dosing. All other clinical signs were recorded.
Series [14] relates to WT EGFR expressing A431 xenograft. The experiment in a line: A431 xenograft antitumor activity. The series is classed as in vivo, mice. The following applies: daily oral.
Series [15] is described as follows: in vivo. Particulars: NIH-III nude, mouse, blood, po, 10 mg/kg.
In series [16] the test system is WT EGFR driven H125 xenografts. The following applies: mouse, in vivo.

Structures are written as SMILES. Some results are limits rather than exact numbers.

In general, AUC(0-inf) refers to the area under the concentration-time curve extrapolated to infinity. A high value points to high exposure. For orientation: half-life means the time needed for the level to fall by half in the phase considered. Read a low half-life as fast loss. As a reminder, the Cmax is the maximum level reached in the sampled fluid or tissue. Turning to `CN(C)C/C=C/C(=O)Nc1cc2c(Nc3ccc(Cl)c(Br)c3)ncnc2cn1` [TH-4000E], in series [1], the “dose potency relative to cetuximab” value is 150 fold and the “lower IC50 value than erlotinib” value is recorded as 80 fold. Besides, the “dose-potency relative to erlotinib (IC50)” value in series [2] stood at 1400 fold. For the same compound, the “sensitivity, oxia- vs hypoxia-preconditioned cells” value in series [3] is on record as “comparable”. Also, in series [4], the “T½β of released TKI in PC9 tumors” value came out at 84 h. In series [5], this compound showed an AUC(0-inf) of 106 ng·h/mL and a half-life of 1.28 h. The compound further gave a Cmax in [5] (Cmax obs) of 47 ± 3.6 ng/mL. In [5] (Cmax pred), this compound showed a peak concentration (Cmax) of 50 ng/mL. Further, in series [6], the “concentration completely silencing pERK expression” value is reported as at least 0.12 μM. In addition, in series [7], the “concentration largely silencing pAkt expression” value was “above 0.12 μM”. For the same compound, in series [8] (1 h drug, EGF 50 ng/mL 15 min), the “concentration completely silencing pEGFR (Y1068) expression” value is given as at least 0.12 μM. The “pEGFR expression completely silenced up to” value in series [8] (lowest concentration of 3-fold dilutions) was 0.041 μM. Moreover, in series [9], the “dose potency relative to TH-4000” value is given as “approximately 28 fold” and the “dose potency relative to cetuximab” value was “at least 250 fold”.

Regarding `C=CC(=O)Nc1cc(Nc2nccc(-c3cn(C)c4ccccc34)n2)c(OC)cc1N(C)CCN(C)C` [AZD9291], the “effect of hypoxia on inhibition of EGFR phosphorylation” value in series [10] was “resistance to AZD9291”.

On to `C#Cc1cccc(Nc2ncnc3cc(OCCOC)c(OCCOC)cc23)c1` [Erlotinib], for which the “Median time to RTV4” value in [11] is given as 114 days; in [12] (Erlotinib 10 mg/kg Qdx21 p.o.), 39 days. The “Median Survival gain” value in series [12] (10 mg/kg Erlotinib, reference Control) is 9 days. In addition, the tumor response result in [13] was “stable disease”. Besides, the tumor outcome in [14] is recorded as “unable to prevent tumor progression”. The “IC50 difference, erlotinib superior to cetuximab” value in [1] is on record as 2 fold. The “effect of anoxia on sensitivity” value in series [2] is reported as “unaffected by anoxia”. For the same compound, the “IC50 lower than cetuximab” value in [2] (after anoxic exposure) turned out to be 13 fold. In series [15], this compound yielded an AUC(0-inf) of 20000 ng·h/mL.

Consider `CN(C)C/C=C/C(=O)Nc1cc2c(Nc3ccc(F)c(Cl)c3)ncnc2cc1O[C@H]1CCOC1` [Afatinib], for which the “Day of average weight loss nadir” value in [16] is “[day 9]”.
